Reference: paper PMC340942, “Engineered Biosynthesis of Regioselectively Modified Aromatic Polyketides Using Bimodular Polyketide Synthases” (PLoS Biology, 2004)
Values after ≈ are worked out from the molar mass of the structure shown.

Legend:
[1] = biological target: T1, glucose-6-phosphate translocase (Rattus norvegicus, UniProt F7EWB7); experiment: G6Pase activity assay in intact male rat liver microsomes (colorimetric inorganic phosphate); assay type: biochemical; settings: for Inhibition of G6Pase activity of the microsome (Figure 7B): 1 mM glucose-6-phosphate; for Inhibition of G6Pase activity: 10–50 μM range
T1 construct: using intact male rat liver microsomes; tissue BD Gentest (Becton Dickinson); host or cells: male Sprague Dawley rat liver microsomes
T1 sequence (F7EWB7 1-429): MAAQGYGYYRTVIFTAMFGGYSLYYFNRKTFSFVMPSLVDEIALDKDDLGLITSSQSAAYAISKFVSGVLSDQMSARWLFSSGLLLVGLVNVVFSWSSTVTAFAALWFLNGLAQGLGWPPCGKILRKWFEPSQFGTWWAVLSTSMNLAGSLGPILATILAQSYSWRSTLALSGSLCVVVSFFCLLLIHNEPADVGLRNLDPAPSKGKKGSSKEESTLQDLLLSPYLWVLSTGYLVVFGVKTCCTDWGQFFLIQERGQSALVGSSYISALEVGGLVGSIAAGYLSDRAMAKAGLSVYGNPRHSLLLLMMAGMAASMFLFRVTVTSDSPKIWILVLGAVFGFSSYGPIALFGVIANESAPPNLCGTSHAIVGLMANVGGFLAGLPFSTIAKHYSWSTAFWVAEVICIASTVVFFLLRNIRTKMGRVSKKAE
Protocol: Recently, the natural product mumbaistatin (Figure 7A) was identified as an extremely potent inhibitor (IC50 = 5 nM) of the glucose-6-phosphate translocase enzyme complex, an attractive target for the treatment of Type II diabetes ([Vertesy et al. 2001]). The core of mumbaistatin consists of an anthraquinone moiety that is related to several engineered compounds discussed in this report. For example, the carboxylic acid at position C-1 and the reduced C-9 are identical to those present in compounds DMAC, 8, and 9. We tested the inhibitory activities of some of these polyketides against glucose-6-phosphate translocase using intact male rat liver microsomes.
The integrity of the microsomes was first verified by comparing the glucose-6-phosphatase (G6Pase) activity in the presence of either glucose-6-phosphate or mannose-6-phosphate.
Male rat liver microsome (Sprague Dawley) was purchased from BD Gentest^TM (Becton Dickinson, Franklin Lakes, New Jersey, United States). Aliquots (100 μl, 2 mg/ml) in 0.25 M sucrose were stored at –80°C. Compound stock solutions were prepared in 95% ethanol and diluted with DMSO. Glucose-6-phosphate and mannose-6-phosphate were purchased from Sigma (St. Louis, Missouri, United States).
The integrity of microsomes and G6Pase activity was measured based on the colorimetric reaction of inorganic phosphate as previously reported ([Arion 1989]). The enzyme reaction was initiated by adding 3 μl of microsome to the reaction mixture, which contained 51 μl of assay buffer (50 mM HEPES, 100 mM KCl, 2.5 mM EDTA, 2.5 mM MgCl2, and 1 mM DTT at pH 7.2), 3 μl of glucose-6-phosphate (final concentration, 1 mM), and 3 μl of inhibitor sample in DMSO. The reaction mixture was incubated at room temperature, and 13 μl of reaction mixture was taken every 10 min and quenched with 117 μl of working solution (6:2:1 mixture of 0.42% ammonium molybdate tetrahydrate in 1N H2SO4, 10% SDS in water, and 10% ascorbic acid in water). The blue reduced phosphomolybdate complex is formed after incubation at 50°C for 20 min. The absorbance was measured at 820 nm.

[2] = biological target: glucose-6-phosphate translocase enzyme complex; parameters: method as in Vertesy et al. 2001; settings: ref Vertesy et al. 2001; cited from earlier work
[3] = Stability of purified compounds at room temperature; assay type: physicochemical
[4] = tested on: human mammary adenocarcinoma MCF-7 cells; experiment: Cytotoxicity against MCF-7 cells (colorimetric MTT assay); assay type: cell-based; settings: MCF7, 120 h, IC50 recorded after 5 d of drug addition, read-out: IC50, cytotoxic activity against MCF-7 cells
Protocol: As described above, the biosynthetic engineering methods reported here have yielded practical routes for the production of several new as well as known anthraquinone compounds. Given the track record of this family of natural products as pharmacologically active molecules, compounds 3, 4, 9, and DMAC were assayed for cytotoxic activities against human mammary adenocarcinoma MCF-7 cells. Apoptosis was observed after 24 h of drug treatment, and IC50 values were recorded after 5 d of drug addition. […] Thus inserting the hydroxyl group at C-9 results in a 10-fold increase in cytotoxic activity.
The studies were performed as described by Hori et al (1993). The cells were maintained at 37°C and growth was measured with the colorimetric MTT assay after each day. The IC50 values were measured after 5 d.

[5] = tested on: human mammary adenocarcinoma MCF-7 cells; parameters: method as in Hori et al. 1993; settings: ref Hori et al. 1993; cited from earlier work
[6] = biological target: T1, glucose-6-phosphate translocase; settings: rat liver microsomes; reference inhibitor, source not given; read-out: IC50, chlorogenic acid used as reference in the G6Pase assay; cited from earlier work

Row | Compound | Inhibition of G6Pase activity of the microsome (Figure 7B) [1] | Inhibition of G6Pase activity [1] | IC50 [4] [µg/mL] | other results
1 | O=C(O)CC(O)CCC(=O)c1cccc(O)c1C(=O)c1c(C(=O)O)c(O)cc2c1C(=O)c1c(O)cccc1C2=O (stereo not shown) [mumbaistatin] |  |  |  | IC50 [2]: 0.005 µM
2 | CCCCC1=C(c2cc(O)cc(=O)o2)C(=O)CC(O)C1 (stereo not shown) [Compound 1] |  |  |  | Stability of the purified compound [3]: slowly dehydrate
3 | CC(C)CCC1=C(c2cc(O)cc(=O)o2)C(=O)CC(O)C1 (stereo not shown) [Compound 2] |  |  |  | Stability of the purified compound [3]: slowly dehydrate
4 | CCCCc1cc(O)cc2c1C(=O)c1c(O)cc(O)cc1C2=O [Compound 5, R1128b] |  |  |  | IC50, cytotoxic activity against MCF-7 cells (natural products) [5]: 9.5 µg/mL (≈ 30.4 µM)
5 | CC(C)CCc1cc(O)cc2c1C(=O)c1c(O)cc(O)cc1C2=O [Compound 6, R1128c] |  |  |  | IC50, cytotoxic activity against MCF-7 cells (natural products) [5]: 6.2 µg/mL (≈ 19 µM)
6 | O=C(/C=C/c1ccc(O)c(O)c1)O[C@@H]1C[C@](O)(C(=O)O)C[C@@H](O)[C@H]1O [chlorogenic acid] |  |  |  | IC50 [6]: 260 µM

The next lines start with results.

Row | Inhibition of G6Pase activity of the microsome (Figure 7B) [1] | Inhibition of G6Pase activity [1] | Compound | IC50 [4] [µg/mL] | other results
7 | Dose-dependent inhibition | Dose-dependent inhibition | CCCCc1c(C(=O)O)c(O)cc2c1C(=O)c1c(O)cccc1C2=O [Compound 8] |  | 
8 | Dose-dependent inhibition | Dose-dependent inhibition | CC(C)CCc1c(C(=O)O)c(O)cc2c1C(=O)c1c(O)cccc1C2=O [Compound 9] | 21.7 (≈ 61.2 µM) | 
9 | No inhibition | not | Cc1c(C(=O)O)c(O)cc2c1C(=O)c1c(O)cc(O)cc1C2=O [Compound 7, 3,6,8-trihydroxy-1-methylanthraquinone-2-carboxylic acid] |  | 
10 | Dose-dependent inhibition | Dose-dependent inhibition | CC(C)CCc1c(C(=O)O)c(O)cc2c1C(=O)c1c(O)cc(O)cc1C2=O [Compound 4] | 1.7 (≈ 4.59 µM) | 
11 | No inhibition | not | Cc1c(C(=O)O)c(O)cc2c1C(=O)c1c(O)cccc1C2=O [DMAC, 3,8-dihydroxy-methylanthraquinone carboxylic acid, reference compound] | 26.9 (≈ 90.2 µM) | 
12 | Dose-dependent inhibition | Dose-dependent inhibition | CCCCc1c(C(=O)O)c(O)cc2c1C(=O)c1c(O)cc(O)cc1C2=O [Compound 3] | 3.4 (≈ 9.54 µM) | 
